Where “and” joins values, the source holds several entries; their conditions need not be identical. Equal entries are not always repeated. Where two headings read alike, the source gives them in different places.
Molecular target: C. elegans complex II (succinate dehydrogenase) (Caenorhabditis elegans, UniProt O62215+P41956+Q09545)
Test: In vitro complex II activity assay, C. elegans mitochondria
Format: biochemical
Conditions: for Percent in vitro activity, Complex II (single replicate Rep1-Rep4): individual biological replicates; for percent (%) in vitro complex II activity relative to solvent control: wild-type C. elegans
Method in brief: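 Mitochondria isolated from adult C. elegans were diluted to 0.2 mg/mL protein and assayed for complex II by the DCIP-coupled method. A600 was read every 30 s over 15 min, with initial linear slope expressed as percent of solvent control. Screening was at 100 μM (≥3 biological replicates), followed by dose-response.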

[1] = 100 µM compound, relative to solvent control, mean (SEM), read-out: % Activity Complex II
[2] = 100 μM of NPD compound, C. elegans mitochondria, 100 µM
[3] = 100 μM of NPD compound, C. elegans mitochondria, mean of four biological replicates, read-out: Percent in vitro activity, Complex II (Mean)

C. elegans complex II (succinate dehydrogenase), sequence (P41956 30-182): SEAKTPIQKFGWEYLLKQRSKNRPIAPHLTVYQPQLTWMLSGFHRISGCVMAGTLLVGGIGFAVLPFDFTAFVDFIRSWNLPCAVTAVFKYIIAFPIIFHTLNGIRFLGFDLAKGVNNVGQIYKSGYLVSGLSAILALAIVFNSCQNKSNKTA
C. elegans complex II (succinate dehydrogenase), sequence (Q09545 22-298): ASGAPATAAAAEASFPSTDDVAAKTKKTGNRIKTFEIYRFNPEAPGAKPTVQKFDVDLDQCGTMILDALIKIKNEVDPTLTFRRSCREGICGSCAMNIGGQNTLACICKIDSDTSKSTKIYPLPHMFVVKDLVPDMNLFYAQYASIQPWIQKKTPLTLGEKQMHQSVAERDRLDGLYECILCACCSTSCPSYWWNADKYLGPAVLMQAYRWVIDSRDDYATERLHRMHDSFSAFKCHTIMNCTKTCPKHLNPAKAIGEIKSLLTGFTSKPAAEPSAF
C. elegans complex II (succinate dehydrogenase), sequence (Q09508 32-646, further chain): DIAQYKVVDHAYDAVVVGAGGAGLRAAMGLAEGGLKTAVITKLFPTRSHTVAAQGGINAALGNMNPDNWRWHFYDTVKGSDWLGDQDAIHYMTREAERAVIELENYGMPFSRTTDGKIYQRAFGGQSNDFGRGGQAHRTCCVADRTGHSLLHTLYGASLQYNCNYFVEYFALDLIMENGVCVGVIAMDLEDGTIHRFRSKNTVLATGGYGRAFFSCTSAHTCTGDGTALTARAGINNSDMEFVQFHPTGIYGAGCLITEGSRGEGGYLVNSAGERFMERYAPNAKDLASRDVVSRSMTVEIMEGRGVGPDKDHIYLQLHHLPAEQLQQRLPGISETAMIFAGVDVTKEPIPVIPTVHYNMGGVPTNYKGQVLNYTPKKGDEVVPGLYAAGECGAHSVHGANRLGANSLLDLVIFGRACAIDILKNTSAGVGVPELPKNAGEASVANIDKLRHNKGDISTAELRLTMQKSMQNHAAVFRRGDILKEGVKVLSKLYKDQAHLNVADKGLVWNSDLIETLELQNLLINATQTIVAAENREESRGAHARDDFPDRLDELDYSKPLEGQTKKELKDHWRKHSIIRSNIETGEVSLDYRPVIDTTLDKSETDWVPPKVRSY
C. elegans complex II (succinate dehydrogenase), sequence (O62215 31-145): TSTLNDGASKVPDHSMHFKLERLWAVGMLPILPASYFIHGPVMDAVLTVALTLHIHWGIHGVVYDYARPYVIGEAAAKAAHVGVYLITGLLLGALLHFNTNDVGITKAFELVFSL

O=C(NCCc1ccc(Cl)cc1)c1ccccc1C(F)(F)F [Wact-11] was tested, and the “% Activity Complex II” value (100 µM compound, relative to solvent control, mean (SEM)) was 24.43 (0.62) %, the “CII Activity” value (100 μM inhibitor, in vitro activity relative to solvent control, N2 C. elegans mitochondria, Mean) was 24.430% and the “Percent in vitro activity, Complex II (single replicate Rep1-Rep4)” value (“Percent … (single replicate Rep1-Rep4)” for short) (100 μM of NPD compound, C. elegans mitochondria) was 25.363% and 20.777% and 26.220%. For the same compound, the “Percent in vitro activity, Complex II (Mean)” value (100 μM of NPD compound, C. elegans mitochondria, mean of four biological replicates) was 24.431%, the “percent (%) in vitro complex II activity relative to solvent control” value (dose 0.0001 µM, Mean of replicates) was 94.900% and the “percent (%) in vitro complex II activity relative to solvent control” value (dose 0.0001 µM, individual replicates) was 104.455% and 86.022% and 94.224%. For the same compound, the “percent (%) in vitro complex II activity relative to solvent control” value (dose 0.0005 µM, Mean of replicates) was 92.990%, the “percent (%) in vitro complex II activity relative to solvent control” value (dose 0.0005 µM, individual replicates) was 105.223% and 78.802% and 94.946% and the “percent (%) in vitro complex II activity relative to solvent control” value (dose 0.001 µM, Mean of replicates) was 95.541%. For the same compound, the “percent (%) in vitro complex II activity relative to solvent control” value (dose 0.001 µM, individual replicates) was 97.389% and 94.470% and 94.765%, the “percent (%) in vitro complex II activity relative to solvent control” value (dose 0.0025 µM, Mean of replicates) was 86.830% and the “percent (%) in vitro complex II activity relative to solvent control” value (dose 0.0025 µM, individual replicates) was 88.172% and 83.871% and 88.448%. For the same compound, the “percent (%) in vitro complex II activity relative to solvent control” value (dose 0.005 µM, Mean of replicates) was 71.382%, the “percent (%) in vitro complex II activity relative to solvent control” value (dose 0.005 µM, individual replicates) was 74.194% and 66.667% and 73.285% and the “percent (%) in vitro complex II activity relative to solvent control” value (dose 0.013 µM, Mean of replicates) was 42.140%. The “percent (%) in vitro complex II activity relative to solvent control” value (dose 0.013 µM, individual replicates) was 41.167% and 38.863% and 46.390%, the “percent (%) in vitro complex II activity relative to solvent control” value (dose 0.025 µM, Mean of replicates) was 24.327% and the “percent (%) in vitro complex II activity relative to solvent control” value (dose 0.025 µM, individual replicates) was 28.111% and 21.045% and 23.827%. For the same compound, the “percent (%) in vitro complex II activity relative to solvent control” value (dose 0.063 µM, Mean of replicates) was 7.305%, the “percent (%) in vitro complex II activity relative to solvent control” value (dose 0.063 µM, individual replicates) was 6.298% and 1.536% and 14.079% and the “percent (%) in vitro complex II activity relative to solvent control” value (dose 0.125 µM, Mean of replicates) was 1.918%. The “percent (%) in vitro complex II activity relative to solvent control” value (dose 0.125 µM, individual replicates) was 3.226% and 0.000% and 2.527%, the “percent (%) in vitro complex II activity relative to solvent control” value (dose 0.313 µM, Mean of replicates) was 0.000% and the “percent (%) in vitro complex II activity relative to solvent control” value (dose 0.313 µM, individual replicates) was 0.000%. For the same compound, the “percent (%) in vitro complex II activity relative to solvent control” value (dose 0.625 µM, Mean of replicates) was 2.509%, the “percent (%) in vitro complex II activity relative to solvent control” value (dose 0.625 µM, individual replicates) was 0.000% and 7.527% and the “percent (%) in vitro complex II activity relative to solvent control” value (dose 1.5 µM, Mean of replicates) was 0.000%. For the same compound, the “percent (%) in vitro complex II activity relative to solvent control” value (dose 1.5 µM, individual replicates) was 0.000%, the “percent (%) in vitro complex II activity relative to solvent control” value (dose 3 µM, Mean of replicates) was 0.717% and the “percent (%) in vitro complex II activity relative to solvent control” value (dose 3 µM, individual replicates) was 0.000% and 2.151%. The “percent (%) in vitro complex II activity relative to solvent control” value (dose 15 µM, Mean of replicates) was 2.650%, the “percent (%) in vitro complex II activity relative to solvent control” value (dose 15 µM, individual replicates) was 0.000% and 6.144% and 1.805% and the “percent (%) in vitro complex II activity relative to solvent control” value (dose 37.5 µM, Mean of replicates) was 1.029%. For the same compound, the “percent (%) in vitro complex II activity relative to solvent control” value (dose 37.5 µM, individual replicates) was 0.000% and 0.922% and 2.166%, the “percent (%) in vitro complex II activity relative to solvent control” value (dose 75 µM, Mean of replicates) was 0.000% and the “percent (%) in vitro complex II activity relative to solvent control” value (dose 75 µM, individual replicates) was 0.000%. For the same compound, the IC50 (wild-type (N2) mitochondria) was 7.1 nM.

For COc1cc2c(cc1OC)C(/C=C/c1ccc(N(C)C)cc1)=NCC2 [NPD6303], the activity at 100 µM [1] was 101%, the “Percent … (single replicate Rep1-Rep4)” value [2] was 124.122% and 89.817% and 91.578% and 100.352% and the activity at 100 µM [3] was 101%.

In the case of COc1cc2c(cc1OC)C(C(C)c1ccc(CC(C)C)cc1)=NCC2 (stereo not shown) [NPD10504], the activity at 100 µM [1] is reported as 106%, the “Percent … (single replicate Rep1-Rep4)” value [2] is reported as 86.801% and 136.285% and 101.347% and 99.840% and the activity at 100 µM [3] is reported as 106%.
